Data reported in patent US10544143B2, “4-azaindole compounds” (BRISTOL-MYERS SQUIBB COMPANY, priority 2017, dated 2020).
pIC50: −log10 of the molar value.

Assays:
[1] = target: human TLR9 (Homo sapiens (Human), UniProt Q9NR96); assay: TLR9 inhibition reporter assay (HEK-Blue SEAP); conditions: read-out: TLR9 IC50; HEK-Blue cells overexpressing human TLR9, ODN2006 5 nM stimulation, SEAP reporter;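 further: SEAP driven by an IFN-β minimal promoter with NF-κB and AP-1 sites, read after 22 h, compounds dosed 0.05 nM–50 µM, inhibition scaled between agonist plus DMSO and reference-inhibitor wells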
Sequence of human TLR9 (Q9NR96 26-1032): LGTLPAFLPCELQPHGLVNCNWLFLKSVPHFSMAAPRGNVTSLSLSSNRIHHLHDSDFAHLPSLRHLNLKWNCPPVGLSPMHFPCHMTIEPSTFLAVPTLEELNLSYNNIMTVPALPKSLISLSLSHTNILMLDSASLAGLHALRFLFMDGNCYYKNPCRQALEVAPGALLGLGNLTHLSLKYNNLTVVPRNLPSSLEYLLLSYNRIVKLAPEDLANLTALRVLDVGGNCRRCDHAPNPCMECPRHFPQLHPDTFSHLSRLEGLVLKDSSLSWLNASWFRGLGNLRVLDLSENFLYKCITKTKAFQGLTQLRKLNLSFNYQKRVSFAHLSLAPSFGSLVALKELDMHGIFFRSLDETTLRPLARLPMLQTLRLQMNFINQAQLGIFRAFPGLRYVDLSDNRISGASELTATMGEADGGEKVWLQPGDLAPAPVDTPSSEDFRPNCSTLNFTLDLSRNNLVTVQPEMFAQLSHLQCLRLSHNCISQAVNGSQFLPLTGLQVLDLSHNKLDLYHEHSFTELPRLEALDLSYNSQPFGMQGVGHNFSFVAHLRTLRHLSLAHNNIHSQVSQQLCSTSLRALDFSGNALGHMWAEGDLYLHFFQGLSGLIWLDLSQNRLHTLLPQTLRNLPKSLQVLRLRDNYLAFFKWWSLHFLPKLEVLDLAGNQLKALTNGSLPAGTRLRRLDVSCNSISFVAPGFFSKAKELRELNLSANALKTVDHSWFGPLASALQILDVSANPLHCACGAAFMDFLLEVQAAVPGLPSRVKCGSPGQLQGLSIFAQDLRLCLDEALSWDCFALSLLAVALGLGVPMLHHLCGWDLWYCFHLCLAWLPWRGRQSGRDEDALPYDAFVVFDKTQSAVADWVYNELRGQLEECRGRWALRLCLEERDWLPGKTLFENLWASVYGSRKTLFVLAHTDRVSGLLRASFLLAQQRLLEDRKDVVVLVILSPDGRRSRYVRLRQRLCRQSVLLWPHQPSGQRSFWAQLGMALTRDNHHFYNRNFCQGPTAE

[2] = target: human TLR7 (Homo sapiens (Human), UniProt Q9NYK1); assay: TLR7 inhibition reporter assay (HEK-Blue SEAP); type: cell-based; conditions: HEK-Blue cells overexpressing human TLR7, gardiquimod 7.5 μM stimulation, SEAP reporter
Sequence of human TLR7 (Q9NYK1 27-1049): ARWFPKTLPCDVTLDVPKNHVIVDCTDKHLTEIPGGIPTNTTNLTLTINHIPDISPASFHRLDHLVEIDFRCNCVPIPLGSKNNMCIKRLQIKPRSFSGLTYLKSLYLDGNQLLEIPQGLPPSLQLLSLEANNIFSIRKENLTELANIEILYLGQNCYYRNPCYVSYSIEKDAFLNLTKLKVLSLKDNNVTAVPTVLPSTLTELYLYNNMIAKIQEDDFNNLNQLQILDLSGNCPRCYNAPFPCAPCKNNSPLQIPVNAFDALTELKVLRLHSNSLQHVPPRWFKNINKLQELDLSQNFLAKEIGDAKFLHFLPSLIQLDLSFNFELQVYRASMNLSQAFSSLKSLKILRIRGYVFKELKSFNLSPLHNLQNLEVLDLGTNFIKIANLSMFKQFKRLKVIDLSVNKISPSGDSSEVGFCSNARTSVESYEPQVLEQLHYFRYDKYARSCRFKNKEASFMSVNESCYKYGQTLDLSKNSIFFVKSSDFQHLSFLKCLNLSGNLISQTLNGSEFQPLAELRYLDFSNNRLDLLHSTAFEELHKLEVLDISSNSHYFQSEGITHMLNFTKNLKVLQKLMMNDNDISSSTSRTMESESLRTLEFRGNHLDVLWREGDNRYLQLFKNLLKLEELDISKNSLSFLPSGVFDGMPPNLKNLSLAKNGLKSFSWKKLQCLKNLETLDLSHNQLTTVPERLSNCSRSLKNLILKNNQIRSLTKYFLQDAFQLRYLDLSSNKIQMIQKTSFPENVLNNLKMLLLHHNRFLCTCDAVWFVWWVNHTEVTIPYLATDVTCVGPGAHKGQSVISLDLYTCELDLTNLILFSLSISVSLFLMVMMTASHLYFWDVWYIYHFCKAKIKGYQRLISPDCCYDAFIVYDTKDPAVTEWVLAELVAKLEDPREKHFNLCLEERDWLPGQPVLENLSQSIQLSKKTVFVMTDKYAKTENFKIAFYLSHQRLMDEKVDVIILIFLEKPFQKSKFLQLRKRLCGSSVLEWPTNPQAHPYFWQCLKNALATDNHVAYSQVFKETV

[3] = target: human TLR8 (Homo sapiens (Human), UniProt Q9NR97); assay: TLR8 inhibition reporter assay (HEK-Blue SEAP); conditions: read-out: TLR8 IC50; HEK-Blue cells overexpressing human TLR8, R848 15.9 μM stimulation, SEAP reporter;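 further: SEAP driven by IFN-β minimal promoter carrying NF-κB and AP-1 sites, compounds dosed 0.05 nM to 50 µM for 22 h, inhibition scaled between agonist-plus-DMSO and reference-inhibitor wells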
Sequence of human TLR8 (Q9NR97 27-1041): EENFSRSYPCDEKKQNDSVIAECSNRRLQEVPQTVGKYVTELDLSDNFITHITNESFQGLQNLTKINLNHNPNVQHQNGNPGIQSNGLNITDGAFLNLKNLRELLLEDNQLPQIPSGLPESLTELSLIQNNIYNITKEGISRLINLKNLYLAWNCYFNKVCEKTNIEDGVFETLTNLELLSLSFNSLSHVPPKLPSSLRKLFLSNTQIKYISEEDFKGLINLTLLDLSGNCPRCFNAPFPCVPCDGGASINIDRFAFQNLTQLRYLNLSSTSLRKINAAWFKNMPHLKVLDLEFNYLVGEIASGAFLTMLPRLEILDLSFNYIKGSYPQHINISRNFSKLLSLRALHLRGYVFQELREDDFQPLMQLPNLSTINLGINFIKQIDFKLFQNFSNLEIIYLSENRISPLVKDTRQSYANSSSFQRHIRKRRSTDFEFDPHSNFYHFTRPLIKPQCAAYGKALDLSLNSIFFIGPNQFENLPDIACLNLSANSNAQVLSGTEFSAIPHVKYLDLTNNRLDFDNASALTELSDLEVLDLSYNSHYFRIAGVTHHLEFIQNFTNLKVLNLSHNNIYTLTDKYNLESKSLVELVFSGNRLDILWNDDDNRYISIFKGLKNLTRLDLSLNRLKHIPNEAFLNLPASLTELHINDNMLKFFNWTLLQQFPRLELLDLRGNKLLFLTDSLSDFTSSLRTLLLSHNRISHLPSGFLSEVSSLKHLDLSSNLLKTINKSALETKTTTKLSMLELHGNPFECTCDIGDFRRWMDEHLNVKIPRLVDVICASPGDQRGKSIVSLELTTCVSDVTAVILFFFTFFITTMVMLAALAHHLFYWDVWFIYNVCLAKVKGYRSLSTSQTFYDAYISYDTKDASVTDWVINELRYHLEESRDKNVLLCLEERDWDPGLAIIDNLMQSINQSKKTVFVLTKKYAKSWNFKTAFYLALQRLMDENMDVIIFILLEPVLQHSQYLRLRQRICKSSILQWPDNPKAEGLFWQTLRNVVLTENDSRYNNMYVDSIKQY

SMILES	pIC50 [1]	pIC50 [2]	pIC50 [3]
Cc1c(-c2[nH]c3ccc(N4CCN(CC(=O)N(C)C)CC4)nc3c2C(C)C)cn2ncnc2c1C [Example 144]	< 4.30	8.08	8.92
Cc1c(-c2[nH]c3ccc(N4CCN(C(=O)CN5CCCC5)CC4)nc3c2C(C)C)cn2ncnc2c1C [Example 145]	5.09	8.82	9.31
Cc1c(-c2[nH]c3ccc(N4CCN(C(=O)CN5CCC5)CC4)nc3c2C(C)C)cn2ncnc2c1C [Example 146]	4.89	8.25	8.60
Cc1c(-c2[nH]c3ccc(N4CCN(CCCS(C)(=O)=O)CC4)nc3c2C(C)C)cn2ncnc2c1C [Example 147]	4.73	8.30	9.59
Cc1c(-c2[nH]c3ccc(N4CCN(CCC#N)CC4)nc3c2C(C)C)cn2ncnc2c1C [Example 148]	< 4.30	7.01	7.80
Cc1c(-c2[nH]c3ccc(N4CCN(CCC(N)=O)CC4)nc3c2C(C)C)cn2ncnc2c1C [Example 149]	4.71	8.03	9.40
Cc1c(-c2[nH]c3ccc(N4CCNC(=O)C4)nc3c2C(C)C)cn2ncnc2c1C [Example 150]	< 4.30	7.92	8.57
Cc1c(-c2[nH]c3ccc(N4CCN(S(=O)(=O)CCN(C)C)CC4)nc3c2C(C)C)cn2ncnc2c1C [Example 151]	4.92	8.92	8.92
Cc1c(-c2[nH]c3ccc(N4CCNC[C@@H]4C)nc3c2C(C)C)cn2ncnc2c1C [Example 152]	5.23	8.57	8.80
Cc1c(-c2[nH]c3ccc(N4CCNC[C@H]4C)nc3c2C(C)C)cn2ncnc2c1C [Example 153]	5.15	9.06	8.80
Cc1c(-c2[nH]c3ccc(N4CCN(CCN5CCOCC5)C(=O)C4)nc3c2C(C)C)cn2ncnc2c1C [Example 154]	< 4.30	5.72	6.22
Cc1c(-c2[nH]c3ccc(N4CCN(CCN5CCOCC5)C(=O)C4)nc3c2C(C)C)cn2ncnc2c1C [Example 155]	< 4.30	6.40	7.25
Cc1c(-c2[nH]c3ccc(N4CCN(C(=O)CNC5CCC5)CC4)nc3c2C(C)C)cn2ncnc2c1C [Example 156]	5.17	8.82	9.10
Cc1c(-c2[nH]c3ccc(N4CCN(C(=O)CNC(C)C)CC4)nc3c2C(C)C)cn2ncnc2c1C [Example 157]	5.05	8.66	8.92
Cc1c(-c2[nH]c3ccc(N4CCN(C(=O)CNCCO)CC4)nc3c2C(C)C)cn2ncnc2c1C [Example 158]	5.08	8.64	9.02
COCCNCC(=O)N1CCN(c2ccc3[nH]c(-c4cn5ncnc5c(C)c4C)c(C(C)C)c3n2)CC1 [Example 159]	5.11	8.62	9.00

SMILES	pIC50 [1]	pIC50 [2]	pIC50 [3]
Cc1c(-c2[nH]c3ccc(N4CCN(C(=O)CN5CCC(O)CC5)CC4)nc3c2C(C)C)cn2ncnc2c1C [Example 160]	4.97	8.74	8.92
Cc1c(-c2[nH]c3ccc(N4CCN(C(=O)CNCC5CC5)CC4)nc3c2C(C)C)cn2ncnc2c1C [Example 161]	5.23	8.85	9.04
Cc1c(-c2[nH]c3ccc(N4CCCNCC4)nc3c2C(C)C)cn2ncnc2c1C [Example 162]	4.64	8.55	8.55
Cc1c(-c2[nH]c3ccc(N4CCCN(CC(=O)N(C)C)CC4)nc3c2C(C)C)cn2ncnc2c1C [Example 163]	4.61	8.01	8.30
Cc1c(-c2[nH]c3ccc(N4CCC(NCC5(S(C)(=O)=O)CC5)C4)nc3c2C(C)C)cn2ncnc2c1C (stereo not drawn) [Example 165]	4.64	7.96	9.17
COc1cc(-c2[nH]c3ccc(C4CCC(N5CCCC5)CC4)nc3c2C(C)C)cn2ncnc12 (stereo not drawn) [Example 174]	5.83	8.37	7.43
CC(C)c1c(-c2cn(C)c3ncccc23)[nH]c2ccc(C3CCC(NCC(=O)N(C)C)CC3)nc12 (stereo not drawn) [Example 182]	6.52	9.32	8.96
CC(C)c1c(-c2cn(C)c3ncccc23)[nH]c2ccc(C3CCC(NCC(=O)N(C)C)CC3)nc12 (stereo not drawn) [Example 183]	5.99	8.25	7.82
CC(C)c1c(-c2cn(C)c3ncccc23)[nH]c2ccc(C3CCC(NC4COC4)CC3)nc12 (stereo not drawn) [Example 184]	5.69	8.06	7.74
CC(C)c1c(-c2cn(C)c3ncccc23)[nH]c2ccc(C3CCC(NC4COC4)CC3)nc12 (stereo not drawn) [Example 185]	4.99	7.42	6.96
COc1cc(-c2[nH]c3ccc(C4CCC(NCc5cnc(C)cn5)CC4)nc3c2C(C)C)cn2ncnc12 (stereo not drawn) [Example 190]	6.45	9.10	8.55
COc1cc(-c2[nH]c3ccc(C4CCC(N5CCCC5)CC4)nc3c2C(C)C)cn2ncnc12 (stereo not drawn) [Example 192]	5.96	8.51	7.72
COc1cc(-c2[nH]c3ccc(C4CCC(N5CCOCC5)CC4)nc3c2C(C)C)cn2ncnc12 (stereo not drawn) [Example 194]	5.44	8.07	7.33
COc1cc(-c2[nH]c3ccc(C4CCC(N5CCCC5)CC4)nc3c2C(C)C)cn2ncnc12 (stereo not drawn) [Example 195]	6.28	9.10	8.37
COc1cc(-c2[nH]c3ccc(C4CCC(NCc5cnc(C)cn5)CC4)nc3c2C(C)C)cn2ncnc12 (stereo not drawn) [Example 196]	6.15	8.77	8.00

The next lines start with the values.

pIC50 [1]	pIC50 [2]	pIC50 [3]	SMILES
5.66	8.82	7.74	COc1cc(-c2[nH]c3ccc(C4CCC(N(C)CCC#N)CC4)nc3c2C(C)C)cn2ncnc12 (stereo not drawn) [Example 166]
6.81	9.37	8.77	COc1cc(-c2[nH]c3ccc(C4CCC(NC(C)C)CC4)nc3c2C(C)C)cn2ncnc12 (stereo not drawn) [Example 167]
6.18	9.05	8.47	COc1cc(-c2[nH]c3ccc(C4CCC(N(C)C(C)C)CC4)nc3c2C(C)C)cn2ncnc12 (stereo not drawn) [Example 168]
5.91	8.51	7.68	COc1cc(-c2[nH]c3ccc(C4CCC(N(C)CCO)CC4)nc3c2C(C)C)cn2ncnc12 (stereo not drawn) [Example 169]
5.85	8.70	7.77	COc1cc(-c2[nH]c3ccc(C4CCC(N(C)C(C)C)CC4)nc3c2C(C)C)cn2ncnc12 (stereo not drawn) [Example 170]
6.25	9.35	8.74	COc1cc(-c2[nH]c3ccc(C4CCC(N(C)C5CC5)CC4)nc3c2C(C)C)cn2ncnc12 (stereo not drawn) [Example 171]
5.75	8.72	7.89	COc1cc(-c2[nH]c3ccc(C4CCC(N(C)C5CC5)CC4)nc3c2C(C)C)cn2ncnc12 (stereo not drawn) [Example 172]
6.24	8.70	8.00	COc1cc(-c2[nH]c3ccc(C4CCC(N5CCC[C@H]5CO)CC4)nc3c2C(C)C)cn2ncnc12 (stereo partly drawn) [Example 173]
6.03	9.46	8.70	COc1cc(-c2[nH]c3ccc(C4CCC(N(C)CCC#N)CC4)nc3c2C(C)C)cn2ncnc12 (stereo not drawn) [Example 175]
4.80	8.28	7.08	COc1cc(-c2[nH]c3ccc(C4CCC(=O)CC4)nc3c2C(C)C)cn2ncnc12 [Example 176]
6.83	9.55	8.60	COc1cc(-c2[nH]c3ccc(C4CCC(N(C)C)CC4)nc3c2C(C)C)cn2ncnc12 (stereo not drawn) [Example 177]
6.05	9.32	8.74	COc1cc(-c2[nH]c3ccc(C4CCC(NC5COC5)CC4)nc3c2C(C)C)cn2ncnc12 (stereo not drawn) [Example 178]
5.76	9.04	8.15	COc1cc(-c2[nH]c3ccc(C4CCC(N(C)C)CC4)nc3c2C(C)C)cn2ncnc12 (stereo not drawn) [Example 179]
5.73	8.55	7.96	COc1cc(-c2[nH]c3ccc(C4CCC(NC5COC5)CC4)nc3c2C(C)C)cn2ncnc12 (stereo not drawn) [Example 180]
6.25	8.77	7.89	COc1cc(-c2[nH]c3ccc(C4CCC(NCC(=O)N(C)C)CC4)nc3c2C(C)C)cn2ncnc12 (stereo not drawn) [Example 181]
6.00	8.66	8.03	COc1cc(-c2[nH]c3ccc(C4CCC(NC5COC5)CC4)nc3c2C(C)C)cn2ncnc12 (stereo not drawn) [Example 186]
5.37	8.68	7.70	COc1cc(-c2[nH]c3ccc(C4CCC(N(C)C)CC4)nc3c2C(C)C)cn2ncnc12 (stereo not drawn) [Example 187]
6.80	9.54	8.60	CNC1CCC(c2ccc3[nH]c(-c4cc(OC)c5ncnn5c4)c(C(C)C)c3n2)CC1 (stereo not drawn) [Example 188]
6.50	8.80	8.17	CNC1CCC(c2ccc3[nH]c(-c4cc(OC)c5ncnn5c4)c(C(C)C)c3n2)CC1 (stereo not drawn) [Example 189]
6.69	9.05	8.57	COc1cc(-c2[nH]c3ccc(C4CCC(N(C)CCO)CC4)nc3c2C(C)C)cn2ncnc12 (stereo not drawn) [Example 191]
6.19	8.82	8.22	COc1cc(-c2[nH]c3ccc(C4CCC(NC(C)C)CC4)nc3c2C(C)C)cn2ncnc12 (stereo not drawn) [Example 193]
